# In patent US20230211023A1, “REPORTER SYSTEM FOR RADIONUCLIDE IMAGING” (Erasmus University Medical Center Rotterdam, priority 2020, published 2023):
# Legend:
# LgBiT = LgBiT (Oplophorus gracilirostris, UniProt Q9GV45, A31E/A60N/A81I/D135N/F58L/F95D/G42A/G62A/G78A/G94A/G98A/H120P/I103V/I117V/I134L/K70R/L176M/L54V/L73R/L99Q/M102E/N171T/P142E/Q151K/Q38E/Q45L/V71I/Y165I); conditions: Dixon et al., 2016; read-out: Kd for binding to LgBiT / NLuc; cited from earlier work
# [1] = system: subcutaneously injected TMLgBiT expressing cells; assay: SPECT imaging of mouse injected subcutaneously with TMLgBiT expressing cells; format: in vivo; conditions: 1 hour after injection of peptide, 20 MBq
# [2] = system: cells expressing the reporter gene TMLgBiT; assay: Binding of radiolabelled peptide to live cells expressing TMLgBiT, gamma counter; format: cell-based; conditions: 1 nM peptide, 20,000 cells/well, washed three times
# Method: The [^111In]-DOTA-6ahx-HiBiT peptide (1 nM) is added to cells expressing the reporter gene TMLgBiT and cells not expressing TMLgBiT are used as negative control (20,000 cells/well). Cells are washed three times and radioactivity measured at a gamma counter. A clear difference in radioactive signal (2000 fold) resulted between TMLgBiT expressing cells and cells non expressing the reporter gene. In FIG. 3, the radiation (in CPM, measured using a gamma counter) of cells expressing TMLgBiT and control cells after addition of […] of radioactive [^111In]-DOTA-6ahx-HiBiT peptide is provided.
# PC3-TMLgBiT tumors = assay: BL and dynamic SPECT/CT imaging of mice bearing PC3-TMLgBiT tumors (FIG. 7); format: in vivo, mouse; conditions: dynamic SPECT scan 1 hour after injection of 0,13 nM
# Method: For these experiments, eight-week-old nude BALB/C male mice (n=12) were injected with 5x10^6 PC-3-TM-LgBiT expressing cells (n=8). Cells were prepared for injections in PBS (Sigma-Aldrich) and matrigel (Corning) solution with a 50:50 ratio and a final injectable volume of 50 µL. Tumors were left to grow approximately 3-4 weeks post tumor cell implantation. To determine the functionality of the imaging system, a dynamic whole body SPECT/CT scan (VECT/CT Milabs) was performed. Mice were anesthetized using 1-2% isoflurane/O2 and the body temperature was maintained at 37° C. during the time of imaging (1 h) by using a heated bed aperture. The 1-hour dynamic SPECT/CT scan was performed immediately after tail vein injection of [^111In]-DOTA-6ahx-HiBiT for the PC-3 tumor model, (20 MBq labeled to 0.13 nmol in 200 µL PBS). […] Dynamic scans were obtained over a total duration of 1 h with 30 time frames, directly after injection of [^111In]-DOTA-6ahx-HiBiT. Acquired images were reconstructed using SR-OSEM with 9 iterations and 128 subsets on a 36 × 36 × 35 mm matrix with 0.80 × 0.80 mm isotropic voxels.
# Chain of subcutaneously injected TMLgBiT expressing cells (as listed by the source): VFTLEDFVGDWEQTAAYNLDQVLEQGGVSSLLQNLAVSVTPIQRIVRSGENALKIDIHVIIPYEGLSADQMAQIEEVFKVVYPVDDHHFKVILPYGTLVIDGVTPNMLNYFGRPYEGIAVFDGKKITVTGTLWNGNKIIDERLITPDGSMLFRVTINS
# Chain of LgBiT (Q9GV45 other isoform, or with tags, fused parts or gaps with the stated changes): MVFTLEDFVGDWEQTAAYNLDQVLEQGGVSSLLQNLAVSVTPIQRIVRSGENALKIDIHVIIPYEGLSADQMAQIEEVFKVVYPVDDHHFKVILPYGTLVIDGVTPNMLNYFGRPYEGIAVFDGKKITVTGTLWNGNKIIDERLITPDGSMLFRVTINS
# Chain of cells expressing the reporter gene TMLgBiT (as listed by the source): as the sequence (as listed by the source) above
# Chain of PC3-TMLgBiT tumors (as listed by the source): as above
Substance,Kd (LgBiT) [nM],SPECT detection of TMLgBiT expressing cells in vivo [1],SPECT detection of TMLgBiT expressing cells in vivo ([1]; listed as 111In -DOTA-6ax-HiBit),SPECT detection of TMLgBiT expressing cells in vivo ([1]; listed as radiolabeled HiBiT peptide),difference in radioactive signal between TMLgBiT expressing cells and cells not expressing the reporter gene [2] [fold],SPECT signal from tumor (PC3-TMLgBiT tumors)
NVSGWRLFKKISN [NLpep78],3.4,–,–,–,–,–
NVTGYRLFKKISN [NLpep79],8.5,–,–,–,–,–
[^111In]-DOTA-6ahx-HiBiT: DOTA-6ahx-HiBiT radiolabelled with indium-111,–,can be specifically detected,could be detected in vivo,High specific signal is detected,2000,specific signal from tumor is visible
